Data as given in ChEMBL document CHEMBL6153033, “Design and synthesis of N-(3-cyanothiophen-2-yl)-2-phenoxyacetamide-based α-glucosidase inhibitors” (Bioorg Med Chem Lett, 2025).
Converted amounts (≈) assume the structure as drawn.

Columns and labels:
[1] = target: T1, Alpha glucosidase (Homo sapiens, UniProt O43451+P10253+P14410+Q2M2H8); assay: Inhibition of alpha-glucosidase (unknown origin) assessed as inhibition rate at 100 uM relative to control; assay type: protein assay
[2] = target: T1, Alpha glucosidase; assay: Inhibition of alpha-glucosidase (unknown origin); assay type: protein assay
[3] = Inhibition of alpha-amylase (unknown origin); set-up: species or system Homo sapiens
[4] = Selectivity index, ratio of IC50 for alpha-amylase (unknown origin) to IC50 for alpha-glucosidase (unknown origin)
[5] = Cytotoxicity against human LO2 cells by MTT assay; assay type: toxicity, cell-based, L02
[6] = Aqueous solubility of compound; assay type: physicochemical
[7] = Stability in mouse plasma assessed as compound remaining parent compound after 1 hrs; assay type: ADME, cell-free; settings: read-out: Stability
[8] = Stability in mouse plasma assessed as compound remaining parent compound after 6 hrs; assay type: ADME, cell-free; settings: read-out: Stability
[9] = Stability in mouse plasma assessed as compound remaining parent compound after 0.5 hrs; assay type: ADME, cell-free; settings: read-out: Stability
[10] = target: T1, Alpha glucosidase; assay: Binding affinity to alpha-glucosidase (unknown origin) assessed as decreased in Vmax using p-nitrophenyl glucopyranoside as substrate at 1 to 16 uM by Lineweaver-Burk plot analysis; assay type: protein assay; settings: dose 1-16 µM
[11] = target: T1, Alpha glucosidase; assay: Binding affinity to alpha-glucosidase (unknown origin) assessed as inhibition constant; assay type: protein assay

Structure (SMILES): COc1cc(C=O)ccc1OCC(=O)Nc1sc2c(c1C#N)CCC(C)C2 (centres undefined)
- inhibition [1]: 93.4%
- IC50 [2]: 7.42 µM
- IC50 [3]: 51.7 µM
- Selectivity Index [4]: 6.97
- CC50 [5]: > 200 µM
- solubility [6]: 28.6 µM (≈ 11 µg/mL)
- remaining at 1 h [7]: 72.9%
- remaining at 6 h [8]: 33.6%
- remaining at 0.5 h [9]: 83.3%

Structure (SMILES): C[C@H]1O[C@H](O[C@H]2[C@H](O)[C@@H](O)[C@@H](O[C@H]3[C@H](O)[C@@H](O)C(O)O[C@@H]3CO)O[C@@H]2CO)[C@H](O)[C@@H](O)[C@@H]1N[C@H]1C=C(CO)[C@@H](O)[C@H](O)[C@H]1O (some centres undefined) [ACARBOSE]
- IC50 [3]: 70 µM
- CC50 [5]: > 200 µM

Structure (SMILES): Cc1cc(C=O)ccc1OCC(=O)Nc1sc2c(c1C#N)CCC(C)C2 (centres undefined)
- IC50 [2]: 35.55 µM

Structure (SMILES): COc1cc(C=O)ccc1OCC(=O)Nc1sc2c(c1C#N)CCCC2
- inhibition [1]: 70.4%
- IC50 [2]: 14.09 µM

Structure (SMILES): COc1cc(C=O)cc(OCC(=O)Nc2sc3c(c2C#N)CCC(C)C3)c1OC (racemic)
- IC50 [2]: 2.11 µM
- IC50 [3]: 36.9 µM
- Selectivity Index [4]: 17.5
- CC50 [5]: > 200 µM
- solubility [6]: 25 µM (≈ 10.4 µg/mL)
- remaining at 1 h [7]: 61.3%
- remaining at 6 h [8]: 50.6%
- remaining at 0.5 h [9]: 84.3%
- Activity [10]: Dose-dependent-effect
- Ki [11]: 5.56 µM

Structure (SMILES): CC1CCc2c(sc(NC(=O)COc3ccc(C=O)cc3)c2C#N)C1 (centres undefined)
- IC50 [2]: 24.28 µM

Structure (SMILES): COc1ccc(C=O)c(OCC(=O)Nc2sc3c(c2C#N)CCC(C)C3)c1 (centres undefined)
- IC50 [2]: 7.17 µM
- IC50 [3]: 65.7 µM
- Selectivity Index [4]: 9.2
- CC50 [5]: > 200 µM
- solubility [6]: 22.2 µM (≈ 8.53 µg/mL)
- remaining at 1 h [7]: 42.7%
- remaining at 6 h [8]: 30%
- remaining at 0.5 h [9]: 57%

Structure (SMILES): CC1CCc2c(sc(NC(=O)COc3cccc(C=O)c3)c2C#N)C1 (centres undefined)
- IC50 [2]: 20.85 µM

Structure (SMILES): COc1cc(C=O)ccc1OCC(=O)Nc1sc2c(c1C#N)CCC2
- inhibition [1]: 70.4%
- IC50 [2]: 35.6 µM

Structure (SMILES): CCOC(=O)C1CCc2sc(NC(=O)COc3ccc(C=O)cc3OC)c(C#N)c21 (centres undefined)
- inhibition [1]: 61.5%
- IC50 [2]: 69.78 µM

Structure (SMILES): CC1CCc2c(sc(NC(=O)COc3ccccc3C=O)c2C#N)C1 (centres undefined)
- IC50 [2]: > 50 µM

Structure (SMILES): COc1ccc(C=O)cc1OCC(=O)Nc1sc2c(c1C#N)CCC(C)C2 (centres undefined)
- IC50 [2]: 4.69 µM
- IC50 [3]: 38.5 µM
- Selectivity Index [4]: 8.19
- CC50 [5]: > 200 µM
- solubility [6]: 25 µM (≈ 9.61 µg/mL)
- remaining at 1 h [7]: 35%
- remaining at 6 h [8]: 0%
- remaining at 0.5 h [9]: 76.5%

Structure (SMILES): COc1cc(C=O)ccc1OCC(=O)Nc1sc2c(c1C#N)CCCCC2
- inhibition [1]: 7.31%

Structure (SMILES): COc1cc(C=O)ccc1OCC(=O)Nc1sc2c(c1C#N)CCOC2
- inhibition [1]: 67.3%
- IC50 [2]: 32.38 µM

Structure (SMILES): COc1cc(C=O)ccc1OCC(=O)Nc1sc2c(c1C#N)CCCC2=O
- inhibition [1]: 45.6%

Structure (SMILES): Cc1ccc(C=O)c(OCC(=O)Nc2sc3c(c2C#N)CCC(C)C3)c1 (centres undefined)
- IC50 [2]: > 50 µM

Structure (SMILES): Cc1cccc(C=O)c1OCC(=O)Nc1sc2c(c1C#N)CCC(C)C2 (centres undefined)
- IC50 [2]: > 50 µM

Structure (SMILES): COC(=O)C1CCCc2sc(NC(=O)COc3ccc(C=O)cc3OC)c(C#N)c21 (centres undefined)
- inhibition [1]: 69.8%
- IC50 [2]: 60.25 µM

Structure (SMILES): COc1cc(C=O)ccc1OCC(=O)Nc1sc2c(c1C#N)CCC(O)C2 (centres undefined)
- inhibition [1]: 86.5%
- IC50 [2]: 10.35 µM

Structure (SMILES): COc1cc(C=O)ccc1OCC(=O)Nc1sc2c(c1C#N)CCC1(C2)OCCO1
- inhibition [1]: 15.7%

Structure (SMILES): COc1ccc(CNC(=O)Nc2sc3c(c2C#N)CCCC3)c(OC)c1
- inhibition [1]: 73.9%
- IC50 [2]: 15.32 µM
- solubility [6]: 28.6 µM (≈ 10.6 µg/mL)
- remaining at 1 h [7]: 51.4%
- remaining at 6 h [8]: 28.5%
- remaining at 0.5 h [9]: 78%
